Activity calls are given as the source filed them. How the calls were made is not given here.
Tested on: CCRIS mutagenicity, Ames/micronucleus/aberration tests
Test: CCRIS mutagenicity studies
[1] = Test System: AMES SALMONELLA TYPHIMURIUM, Strain/Indicator: TA98, Metabolic Activation: NONE, Method: PREINCUBATION
[2] = Test System: AMES SALMONELLA TYPHIMURIUM, Strain/Indicator: TA100, Metabolic Activation: NONE, Method: PREINCUBATION
[3] = Test System: AMES SALMONELLA TYPHIMURIUM, Strain/Indicator: TA98, Metabolic Activation: HAMSTER, LIVER, S-9, AROCLOR 1254 (10%), Method: PREINCUBATION
[4] = Test System: AMES SALMONELLA TYPHIMURIUM, Strain/Indicator: TA98, Metabolic Activation: RAT, LIVER, S-9, AROCLOR 1254 (10%), Method: PREINCUBATION
[5] = Test System: AMES SALMONELLA TYPHIMURIUM, Strain/Indicator: TA100, Metabolic Activation: HAMSTER, LIVER, S-9, AROCLOR 1254 (10%), Method: PREINCUBATION
[6] = Test System: AMES SALMONELLA TYPHIMURIUM, Strain/Indicator: TA100, Metabolic Activation: RAT, LIVER, S-9, AROCLOR 1254 (10%), Method: PREINCUBATION
[7] = Test System: AMES SALMONELLA TYPHIMURIUM, Strain/Indicator: TA1535, Metabolic Activation: HAMSTER, LIVER, S-9, AROCLOR 1254 (10%), Method: PREINCUBATION
[8] = Test System: AMES SALMONELLA TYPHIMURIUM, Strain/Indicator: TA1535, Metabolic Activation: NONE, Method: PREINCUBATION
[9] = Test System: AMES SALMONELLA TYPHIMURIUM, Strain/Indicator: TA1535, Metabolic Activation: RAT, LIVER, S-9, AROCLOR 1254 (10%), Method: PREINCUBATION
[10] = Test System: AMES SALMONELLA TYPHIMURIUM, Strain/Indicator: TA1537, Metabolic Activation: HAMSTER, LIVER, S-9, AROCLOR 1254 (10%), Method: PREINCUBATION
[11] = Test System: AMES SALMONELLA TYPHIMURIUM, Strain/Indicator: TA1537, Metabolic Activation: NONE, Method: PREINCUBATION
[12] = Test System: AMES SALMONELLA TYPHIMURIUM, Strain/Indicator: TA1537, Metabolic Activation: RAT, LIVER, S-9, AROCLOR 1254 (10%), Method: PREINCUBATION

Measured: mutagenic call

C[C@]12CC[C@H](O)CC1=CC[C@@H]1[C@@H]2CC[C@]2(C)C(=O)CC[C@@H]12
inactive: Test System: AMES SALMONELLA TYPHIMURIUM, Strain/Indicator: TA102, Metabolic Activation: RAT LIVER S-9, PHENOBARBITAL AND 5,6-BENZOFLAVONE, Method: STANDARD PLATE inactive; negative | Test System: AMES SALMONELLA TYPHIMURIUM, Strain/Indicator: TA2638, Metabolic Activation: RAT LIVER S-9, PHENOBARBITAL AND 5,6-BENZOFLAVONE, Method: STANDARD PLATE inactive; negative | Test System: E. COLI, Strain/Indicator: WP2 (PKM101), Metabolic Activation: RAT LIVER S-9, PHENOBARBITAL AND 5,6-BENZOFLAVONE, Method: STANDARD PLATE inactive; negative | Test System: E. COLI, Strain/Indicator: WP2 UVRA (PKM101), Metabolic Activation: RAT LIVER S-9, PHENOBARBITAL AND 5,6-BENZOFLAVONE, Method: STANDARD PLATE inactive; negative | Test System: UDS RAT HEPATOCYTES, Strain/Indicator: THY INCORP (18-20 HR), Metabolic Activation: NONE, Method: LIQUID SCINTILLATION COUNTING inactive; negative

CC(c1ccccc1)N(C)C (centres undefined)
inactive: [1] inactive; negative | Test System: AMES SALMONELLA TYPHIMURIUM, Strain/Indicator: TA98, Metabolic Activation: RAT, LIVER, S-9, PCB, Method: PREINCUBATION inactive; negative | [2] inactive; negative | Test System: AMES SALMONELLA TYPHIMURIUM, Strain/Indicator: TA100, Metabolic Activation: RAT, LIVER, S-9, PCB, Method: PREINCUBATION inactive; negative

Cc1c2ccccc2c(C)c2c3c(ccc12)C(=O)C(=O)C=C3
inactive: Test System: AMES SALMONELLA TYPHIMURIUM, Strain/Indicator: TA97A, Metabolic Activation: NONE, Method: PREINCUBATION inactive; negative | [1] inactive; negative | [2] inactive; negative | Test System: AMES SALMONELLA TYPHIMURIUM, Strain/Indicator: TA102, Metabolic Activation: NONE, Method: PREINCUBATION inactive; negative | Test System: AMES SALMONELLA TYPHIMURIUM, Strain/Indicator: TA104, Metabolic Activation: NONE, Method: PREINCUBATION inactive; negative

COc1nsc2ccc(N)cc12
active: Test System: AMES SALMONELLA TYPHIMURIUM, Strain/Indicator: TA100, Metabolic Activation: S-9, Method: STANDARD PLATE active; positive

C=C1[C@@H](O)[C@@H]2O[C@]3(CC[C@H](/C=C/[C@@H](C)[C@@H]4CC(C)=C[C@@]5(O[C@H](C[C@@](C)(O)C(=O)O)CCC5O)O4)O3)CC[C@H]2O[C@@H]1[C@@H](O)C[C@H](C)[C@H]1O[C@@]2(CCCCO2)CC[C@H]1C (some centres undefined)
active: End Point: IN VITRO MICRONUCLEUS, Test System: HUMAN PERIPHERAL LYMPHOCYTES, Metabolic Activation: NONE active; positive | End Point: In vitro micronucleus, Test System: Chinese hamster ovary (CHO-K1) cells, Metabolic Activation: Rat, Liver, S-9, Phenobarbital and beta-naphthoflavone active; positive | End Point: In vitro micronucleus, Test System: Chinese hamster ovary (CHO-K1) cells, Metabolic Activation: Rat, Liver, S-9, Phenobarbital and beta-naphthoflavone, Method: FISH (fluorescein isothiocyanate isomer 1 (FITC)-conjugated peptide nucleic acid probe) active; positive (dose-dependent increase in percentage of centromer-positive micronucle | End Point: In vitro micronucleus, Test System: Human colon carcinoma Caco-2 cells, Metabolic Activation: None active; positive | Test System: CHINESE HAMSTER V-79, Strain/Indicator: V-79 (HGPRT)/6-THIOGUANINE, Metabolic Activation: NONE active; positive
inactive: End Point: In vitro micronucleus, Test System: Chinese hamster ovary (CHO-K1) cells, Metabolic Activation: None inactive; negative | End Point: In vitro micronucleus, Test System: Chinese hamster ovary (CHO-K1) cells, Metabolic Activation: Rat, Liver, S-9, Phenobarbital and beta-naphthoflavone, heat inactivated inactive; negative | Test System: AMES SALMONELLA TYPHIMURIUM, Strain/Indicator: TA98, Metabolic Activation: S-9, Method: PREINCUBATION inactive; negative | Test System: AMES SALMONELLA TYPHIMURIUM, Strain/Indicator: TA100, Metabolic Activation: S-9, Method: PREINCUBATION inactive; negative | Test System: CHINESE HAMSTER V-79, Strain/Indicator: V-79 (HGPRT)/6-THIOGUANINE, Metabolic Activation: RAT, LIVER, HEPATOCYTES inactive; negative

C=CC(=O)OCCN(C)C
inactive: [3] inactive; negative | [1] inactive; negative | [4] inactive; negative | [5] inactive; negative | [2] inactive; negative | [6] inactive; negative | [7] inactive; negative | [8] inactive; negative | [9] inactive; negative | [10] inactive; negative | [11] inactive; negative | [12] inactive; negative

FC(F)(F)C(F)(F)C(F)(F)C(F)(F)I
inactive: End Point: IN VITRO CHROMOSOMAL ABERRATIONS, Test System: HUMAN PERIPHERAL BLOOD LYMPHOCYTES, Metabolic Activation: NONE inactive; negative | End Point: IN VITRO CHROMOSOMAL ABERRATIONS, Test System: HUMAN PERIPHERAL BLOOD LYMPHOCYTES, Metabolic Activation: RAT, LIVER, S-9, AROCLOR 1254 inactive; negative | Test System: AMES SALMONELLA TYPHIMURIUM, Strain/Indicator: TA98, Metabolic Activation: NONE inactive; negative | Test System: AMES SALMONELLA TYPHIMURIUM, Strain/Indicator: TA98, Metabolic Activation: RAT, LIVER, S-9, AROCLOR 1254 inactive; negative | Test System: AMES SALMONELLA TYPHIMURIUM, Strain/Indicator: TA100, Metabolic Activation: NONE inactive; negative | Test System: AMES SALMONELLA TYPHIMURIUM, Strain/Indicator: TA100, Metabolic Activation: RAT, LIVER, S-9, AROCLOR 1254 inactive; negative | Test System: AMES SALMONELLA TYPHIMURIUM, Strain/Indicator: TA1535, Metabolic Activation: NONE inactive; negative | Test System: AMES SALMONELLA TYPHIMURIUM, Strain/Indicator: TA1535, Metabolic Activation: RAT, LIVER, S-9, AROCLOR 1254 inactive; negative | Test System: AMES SALMONELLA TYPHIMURIUM, Strain/Indicator: TA1537, Metabolic Activation: NONE inactive; negative | Test System: AMES SALMONELLA TYPHIMURIUM, Strain/Indicator: TA1537, Metabolic Activation: RAT, LIVER, S-9, AROCLOR 1254 inactive; negative | Test System: E. COLI, Strain/Indicator: WP2UVRA, Metabolic Activation: NONE inactive; negative | Test System: E. COLI, Strain/Indicator: WP2UVRA, Metabolic Activation: RAT, LIVER, S-9, AROCLOR 1254 inactive; negative

Cc1c(Br)c(Br)c(Br)c(Br)c1Br
inactive: [3] inactive; negative | [1] inactive; negative | [4] inactive; negative | [5] inactive; negative | [2] inactive; negative | [6] inactive; negative | [7] inactive; negative | [8] inactive; negative | [9] inactive; negative | [10] inactive; negative | [11] inactive; negative | [12] inactive; negative

CC(C)=C/C(C)=N/Nc1nncc2ccccc12
inactive: Test System: UDS RAT HEPATOCYTES, Strain/Indicator: THY INCORP, Metabolic Activation: NONE, Method: AUTORADIOGRAPHY inactive; negative
active: Test System: AMES SALMONELLA TYPHIMURIUM, Strain/Indicator: TA100, Metabolic Activation: NONE, Method: STANDARD PLATE active; positive | Test System: AMES SALMONELLA TYPHIMURIUM, Strain/Indicator: TA100, Metabolic Activation: RAT, LIVER, S-9, PHENOBARBITAL, Method: STANDARD PLATE active; positive
